Data reported in patent US20080194640A1, “Optically Active Tetrahydronaphthalene Derivative” (priority 2005, published 2008).
≈ marks a conversion by molar mass, not a printed value. Blank lines part the entries; values can stand above or below the compound they belong to.

Tests used:
[1] = test system: C5a stimulated neutrophil; experiment: Production of reactive oxygen species in C5a-stimulated neutrophil; assay type: cell-based; settings: human neutrophil, C5a 3 nmol/L, luminol luminescence, 37° C.; read-out: IC50 value, inhibition of production of reactive oxygen species in C5a stimulated neutrophil
Method: A neutrophil fraction was separately taken from human peripheral venous blood using Lympholyte-poly (Cedarlane), and suspended in Hank's Balanced Salt Solution (HBSS, GIBCO BRL) containing 1% fetal bovine serum (FBS) and 1 mmol/L luminol (Wako Pure Chemical Industries, Ltd.). Reactive oxygen species was measured using a luminometer (MicroLumat, Berthold) for 96-well plate. […] Then, 25 μL of C5a (final concentration 3 nmol/L) was added and luminescence produced by the reaction of the luminol and the reactive oxygen species was measured with the lapse of time for 15 min. The rate of inhibition (% inhibition) of the production of reactive oxygen species in C5a stimulated neutrophil by the test compound was calculated by the following formula, wherein the peak value of the production of reactive oxygen species derived by C5a without addition of the test compound is Max, the peak value of the production of reactive oxygen species without addition of the test compound and without C5a stimulation is Min, and the peak value of the production of reactive oxygen species derived by C5a with the addition of the test compound is Test. […]

C5a receptor = target: T1, C5a receptor (Homo sapiens, UniProt P21730); experiment: C5a receptor binding assay ([125I]-human C5a, human peripheral blood neutrophil); settings: [125I]-C5a 200 pM, 4° C. for 2 hr, read-out: IC50 value, inhibition of [125I]-human C5a binding
T1 construct: neutrophil fraction was separated from human peripheral intravenous blood; endogenous in cells; host or cells: human peripheral blood neutrophils (whole cells)
T1 sequence (P21730 1-350): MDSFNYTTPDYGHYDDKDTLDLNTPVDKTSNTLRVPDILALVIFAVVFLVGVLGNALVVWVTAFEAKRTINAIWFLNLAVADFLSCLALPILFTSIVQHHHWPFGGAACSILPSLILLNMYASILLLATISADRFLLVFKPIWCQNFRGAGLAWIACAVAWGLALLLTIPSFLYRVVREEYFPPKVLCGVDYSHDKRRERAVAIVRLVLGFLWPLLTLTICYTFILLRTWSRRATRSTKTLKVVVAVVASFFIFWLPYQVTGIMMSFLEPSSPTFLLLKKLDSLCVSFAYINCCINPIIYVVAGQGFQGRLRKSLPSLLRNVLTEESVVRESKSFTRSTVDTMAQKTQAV
Method: The C5a receptor binding inhibitory action of C5a and the test compound was evaluated by a receptor binding assay comprising of human peripheral blood neutrophil, which expresses the C5a receptor, and [^125I]-human C5a (Amersham Pharmacia Biotech) in a MultiScreen (MILLIPORE). First, neutrophil fraction was separated from human peripheral intravenous blood using lympholyte-poly (Cedarlane), and suspended in a Binding buffer [50 mM HEPES, 1 mM CaCl2, 5 mM MgCl2, 0.5% bovine albumin (BSA, SIGMA), 0.02% NaN3 (pH 7.2)]. The binding assay was started by the addition of 1×10^5 cells/50 μL neutrophil suspension, 25 μL of a test compound solution (obtained by dissolving the test compound in N,N-dimethylformamide to a final concentration of 10 mmol/L and diluting with binding buffer), and 25 μL of [^125I]-C5a solution (final concentration 200 pM), to each well of the MultiScreen. […] After drying the MultiScreen, the radioactivity on the filter was measured using a gamma counter.
The rate of inhibition (% inhibition) of C5a binding by the test compound was calculated by the following formula using the count value obtained without addition of the test compound as Total, the count value obtained with addition of non-labeled C5a as Non, and the count value obtained with addition of the test compound as Test. […]

[2] = Evaluation of biological availability (bioavailability) in rat; assay type: in vivo; settings: for AUC: rat, fasted female SD rats, plasma
Method: Free base•Form-I crystal was administered to female SD rats fasted from the day before the experiment and the plasma concentration was measured under the following conditions. As a result, the areas under blood concentration-time curve (AUC) of the drug after intravenous administration and oral administration are as shown in Table 1.
• Dosing formulation: 0.5 mg/ml in aqueous physiological saline. • Dose: 1 mg/2 ml/kg • Administration method: bolus administration from the tail vein Collection of blood samples: About 0.1-0.2 mL of blood was taken from the cervical vein at 3 min, 10 min, 30 min, 1 hr, 2 hr, 4 hr and 6 hr after administration. The blood was centrifuged, and the plasma was separated.
• Dosing formulation: 2 mg/ml suspension adjusted by gradually adding aqueous hydroxypropylmethylcellulose solution to the compound of the present invention thoroughly triturated in an agate mortar. • Dose: 10 mg/5 ml/kg • Administration method: Forcible administration into the stomach • Collection of blood samples: About 0.1-0.2 mL of blood was taken from the cervical vein at 30 min, 1 hr, 2 hr, 4 hr, 6 hr, 8 hr and 24 hr after administration. The blood was centrifuged, and the plasma was separated.
The plasma concentration of the administered compound was measured by LC-MS/MS.
LC conditions • Column: Capcellpak C18 UG-120 (2.0φ mm×50 mm, S-5 μm, Shiseido Co., Ltd.) • Mobile phase: acetonitrile • Flow rate: 0.25 mL/min • Column temperature: room temperature • Auto sampler temperature set to: 25° C. • Gradient setting: • 0 min→0.6 min:25%→25% • 0.6 min→3.6 min:25%→75% • 3.6 min→6 min:75%→75% • 6 min→6.1 min:75%→25% • 6.1 min→9.5 min:25%→25% • MS/MS conditions • Ionization method: ESI • Capillary temperature: 350° C. • Sheath gas pressure: 80 psi • Spray voltage: 4.5 kV.
The plasma concentration of the racemate was measured by a similar method, and the biological availability was calculated and found to be 20%.

[3] = test system: collagen-induced arthritis; experiment: Collagen-induced arthritis in monkey (articular swelling score); assay type: in vivo, cynomolgus monkey
[4] = Solubility test (Japanese Pharmacopoeia Solution 2); assay type: physicochemical; settings: for solubility after 30 min: Japanese Pharmacopoeia Solution 2, 37° C., shaken 30 min
Method: An adequate amount of a sample was taken, and a test solution (The Japanese Pharmacopoeia Solution 2) was added to each to a concentration of about 1 mg/ml. The sample was dispersed by ultrasonication for 2 min, shaken at 37° C. for 30 min, and the solution was filtered through DISMIC13HP ([…]). The filtrate in the early stage (3 ml) was removed, the subsequent filtrate (500 μl) was precisely measured, and the dilution solution (water/acetonitrile/trifluoroacetic acid mixture=500:500:1, 500 μl) was accurately added to give a sample solution. The sample solution and the standard solution prepared in Experimental Example 5 were subjected to the measurement under the similar HPLC conditions as in Experimental Example 5.

[5] = Dissolution test (JP Dissolution Test Method 2, paddle method); assay type: physicochemical; settings: JP second fluid 900 ml, paddle 50 rpm, 37° C., about 10 mg based on free form
Method: The compounds obtained in Examples 22, 24 and 25, free base•Form-I crystal, and the racemate of the compound of Example 3 were subjected to a dissolution test, and the dissolution rate was compared. According to this test method, the amount of dissolution relative to the content of each compound in the test solution is expressed in the dissolution rate (%), which was measured over time.
For the method of adding each compound, the compound (about 10 mg based on free form) was precisely weighed and directly added to a vessel. As the test solution, The Japanese Pharmacopoeia second fluid (900 ml) was used, and the test was performed according to The Japanese Pharmacopoeia Dissolution Test Method 2 (Paddle Method) at 50 rpm. The test temperature was 37° C. After the start of the test, solution for dissolution (10 ml) was taken at suitable times, and a test solution (10 ml) heated to 37° C. was soon carefully added for compensation. The collected solution for dissolution was passed through a filter (DISMIC 13HP PTFE (0.45 μm); Toyo Roshi Kaisha). The filtrate in the early stage (5 ml) was removed, the subsequent filtrate (500 μl) was precisely measured, and the dilution solution (water/acetonitrile/trifluoroacetic acid mixture=500:500:1, 500 μl) was accurately added to give a sample solution.
Separately, about 10 mg of the free base•Form-I crystal was precisely weighed, and a dilution solution (water/acetonitrile/trifluoroacetic acid mixture=500:500:1) was added to 50 ml sharp. This solution (2.5 ml) was precisely measured, and a dilution solution (water/acetonitrile/trifluoroacetic acid mixture=500:500:1) was added to 50 ml sharp. This was used as the standard solution of free base•Form-I crystal (10 μg/ml). The sample solution and the standard solution were measured under the HPLC conditions shown below, the peak areas AT and AS of the free base•Form-I crystal in each solution were measured, and the dissolution rate was determined by the following formula.
The nth dissolution rate (%) of free base•Form-I crystal=Wn/W100%×100 • W1: the first dissolution amount (mg) of free base•Form-I crystal
=(900×AT1)×WS/AS/1000 • Wn: the nth (n>1) dissolution amount (mg) of free base•Form-I crystal
={900×ATn+10×(AT1+AT2 . . . +ATn−1)}×WS/AS/1000 • W100%: cast amount (mg) of drug substance • Ws: collected amount (mg) of free base•Form-I crystal standard product • As: peak area of free base•Form-I crystal in standard solution • AT1: peak area of free base•Form-I crystal in sample solution by the first sampling • ATn: peak area of free base•Form-I crystal in sample solution by the nth sampling. • For racemate, the dissolution rate was calculated based on the total value of S form and R form. […]

IC50 [1]: 2.8 nM
IC50 (C5a receptor): 10 nM
biological availability ([2]; female SD rats, oral 10 mg/kg vs intravenous 1 mg/kg): 62%
AUC ([2]; intravenous administration 1 mg/kg): 264 ng·h/mL
AUC ([2]; oral administration 10 mg/kg): 1640 ng·h/mL
solubility after 30 min ([4]; listed as free base•Form-I crystal): 66 µg/mL (≈ 158 µM)
Structure (SMILES): CCn1cc(CN(C(=O)[C@H]2CCCc3c(O)cccc32)c2ccc(C(C)C)nc2)cn1 [Example 3, (1S)-(−)-N-[(1-ethyl-1H-pyrazol-4-yl)methyl]-5-hydroxy-N-(6-isopropylpyridin-3-yl)-1,2,3,4-tetrahydronaphthalene-1-carboxamide]
articular swelling score, average ([3]; before administration, cynomolgus monkey, 10 per group, control group average 49): 49
articular swelling score, average ([3]; day 14 of administration, oral, day 36 to day 50, control group average 82): 61
effect on aggravation of arthritis ([3]; oral administration day 36 to day 50, cynomolgus monkey): significantly suppressed aggravation of arthritis

Structure (SMILES): CCn1cc(CN(C(=O)[C@H]2CCCc3c(O)cccc32)c2ccc(C(C)C)nc2)cn1 [Example 22, (1S)-(−)-N-[(1-ethyl-1H-pyrazol-4-yl)methyl]-5-hydroxy-N-(6-isopropylpyridin-3-yl)-1,2,3,4-tetrahydronaphthalene-1-carboxamide]
dissolution rate (comparison) [5]: faster than that of the free base•Form-I crystal

solubility relative to free base•Form-I crystal ([4]; JP Solution 2, 37° C., 30 min): 2.5 fold
solubility relative to the racemate ([4]; JP Solution 2, 37° C., 30 min): about 5 fold
solubility after 30 min [4]: 165 µg/mL (≈ 394 µM)
Structure (SMILES): CCn1cc(CN(C(=O)[C@H]2CCCc3c(O)cccc32)c2ccc(C(C)C)nc2)cn1 [Example 23, (1S)-(−)-N-[(1-ethyl-1H-pyrazol-4-yl)methyl]-5-hydroxy-N-(6-isopropylpyridin-3-yl)-1,2,3,4-tetrahydronaphthalene-1-carboxamide]

Structure (SMILES): Br.CCn1cc(CN(C(=O)[C@H]2CCCc3c(O)cccc32)c2ccc(C(C)C)nc2)cn1 [Example 25, (1S)-(−)-N-[(1-ethyl-1H-pyrazol-4-yl)methyl]-5-hydroxy-N-(6-isopropylpyridin-3-yl)-1,2,3,4-tetrahydronaphthalene-1-carboxamide monohydrobromide]
dissolution rate (comparison) [5]: faster than that of the free base•Form-I crystal

Structure (SMILES): CCn1cc(CN(C(=O)[C@H]2CCCc3c(O)cccc32)c2ccc(C(C)C)nc2)cn1.Cl [Example 24, (1S)-(−)-N-[(1-ethyl-1H-pyrazol-4-yl)methyl]-5-hydroxy-N-(6-isopropylpyridin-3-yl)-1,2,3,4-tetrahydronaphthalene-1-carboxamide monohydrochloride]
dissolution rate (comparison) [5]: faster than that of the free base•Form-I crystal
